Experimental data: patent US9695155B2, “Herbicidal substituted pyrimidinyloxy benzene compounds” (E. I. DU PONT DE NEMOURS AND COMPANY, priority 2013, dated 2017)

Legend:
giant foxtail = assay: Test C postemergence; assay type: in vivo, Setaria faberii; settings: Setaria faberi, post-emergence
Procedure, shortened: (§1)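 Seeds were sown in loam–sand blend and sprayed preemergence, while plants at 1- to 4-leaf stage (2–18 cm) in peat-based medium received postemergence sprays; test chemicals were formulated in a non-phytotoxic solvent with surfactant. After 13–15 days in a greenhouse, injury was rated visually against controls, 0 (no effect) to 100 (complete control).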

johnsongrass = assay: Test C preemergence; assay type: in vivo, Sorghum halepense; settings: Sorghum halepense, pre-emergence, preemergence, read-out: Johnsongrass plant response rating
Procedure, shortened: as §1

velvetleaf = assay: Test C postemergence; assay type: in vivo, Abutilon theophrasti; settings: Abutilon theophrasti, post-emergence
Procedure, shortened: as §1

barnyardgrass [1] = assay: Test A postemergence; assay type: in vivo, Echinochloa crus-galli; settings: Echinochloa crus-galli, post-emergence, 240 h
Procedure, shortened: (§2)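 Visual injury scored 0–100 (100 = complete control) against untreated controls about 10 days after treatment in a greenhouse. Test chemicals, formulated with surfactant in non-phytotoxic solvent, were sprayed on soil preemergence or on 2-10 cm, one- to two-leaf plants postemergence.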

lambsquarters = assay: Test C postemergence; assay type: in vivo, Chenopodium album; settings: Chenopodium album, post-emergence
Procedure, shortened: as §1

kochia = assay: Test A preemergence; assay type: in vivo, Kochia scoparia; settings: 0 to 100 scale where 0 is no effect and 100 is complete control
Procedure, shortened: as §2

barnyardgrass [2] = assay: Test A preemergence; assay type: in vivo, Echinochloa crus-galli; settings: Echinochloa crus-galli, pre-emergence, 240 h, 0 to 100 scale where 0 is no effect and 100 is complete control, read-out: Plant response rating, Barnyardgrass
Procedure, shortened: as §2

Italian ryegrass [3] = assay: Test C preemergence; assay type: in vivo, Lolium multiflorum; settings: Lolium multiflorum, pre-emergence, preemergence, read-out: Ryegrass, Italian plant response rating
Procedure, shortened: as §1

Italian ryegrass [4] = assay: Test A postemergence; assay type: in vivo, Lolium multiflorum
Procedure, shortened: as §2

galium [5] = assay: Test C preemergence; assay type: in vivo, Galium aparine; settings: Galium, pre-emergence
Procedure, shortened: as §1

morningglory = assay: Test C preemergence; assay type: in vivo, Ipomoea coccinea; settings: Ipomoea, pre-emergence, preemergence, read-out: Morningglory plant response rating
Procedure, shortened: as §1

soybean = assay: Test C postemergence; assay type: in vivo, Glycine max; settings: Glycine max, post-emergence
Procedure, shortened: as §1

blackgrass = assay: Test C postemergence; assay type: in vivo, Alopecurus myosuroides; settings: Alopecurus myosuroides, post-emergence
Procedure, shortened: as §1

Italian ryegrass [6] = assay: Test A preemergence; assay type: in vivo, Lolium multiflorum; settings: 0 to 100 scale where 0 is no effect and 100 is complete control
Procedure, shortened: as §2

galium [7] = assay: Test C postemergence; assay type: in vivo, Galium aparine; settings: Galium, post-emergence
Procedure, shortened: as §1

ragweed = assay: Test C postemergence; assay type: in vivo, Ambrosia elatior; settings: Ambrosia artemisiifolia, post-emergence
Procedure, shortened: as §1

wheat = assay: Test A postemergence; assay type: in vivo, Triticum aestivum; settings: Triticum aestivum, post-emergence, 240 h
Procedure, shortened: as §2

[8] = 16 g ai/ha, scale 0 to 100 (0 no effect, 100 complete control)
[9] = 62 g ai/ha, scale 0 (no effect) to 100 (complete control)
[10] = 125 g ai/ha, scale 0 (no effect) to 100 (complete control)
[11] = 31 g ai/ha, visual, approximately 10 days

Fc1cccc(Oc2ncc(Cl)cn2)c1-n1cc(C(F)F)nn1 [Compound 141, 5-chloro-2-[2-[4-(difluoromethyl)-1H-1,2,3-triazol-1-yl]-3-fluorophenoxy]pyrimidine] was tested, and the pest or weed control at 16 g/ha (giant foxtail; 16 g ai/ha, postemergence, 0 is no effect, 100 is complete control, read-out: Plant response rating (0 to 100), Foxtail, Giant) was 10%, the pest or weed control at 125 g/ha (giant foxtail; 125 g ai/ha, postemergence, visual rating, scale 0 to 100 (0 no effect, 100 complete control), read-out: Plant response rating, Foxtail, Giant) was 70% and the pest or weed control at 62 g/ha (giant foxtail; Postemergence, 62 g ai/ha, scale 0 to 100 (0 no effect, 100 complete control), read-out: Plant response rating, Foxtail, Giant) was 45%. The pest or weed control at 16 g/ha (johnsongrass; [8]) was 30%, the pest or weed control at 62 g/ha (johnsongrass; [9]) was 100% and the pest or weed control at 125 g/ha (johnsongrass; [10]) was 100%. It also gave a pest or weed control at 16 g/ha (velvetleaf; 16 g ai/ha, postemergence, 0 is no effect, 100 is complete control, read-out: Plant response rating (0 to 100), Velvetleaf) of 80%, a pest or weed control at 125 g/ha (velvetleaf; 125 g ai/ha, postemergence, visual rating, scale 0 to 100 (0 no effect, 100 complete control), read-out: Plant response rating, Velvetleaf) of 100% and a pest or weed control at 62 g/ha (velvetleaf; Postemergence, 62 g ai/ha, scale 0 to 100 (0 no effect, 100 complete control), read-out: Plant response rating, Velvetleaf) of 100%. It also gave a pest or weed control at 31 g/ha (barnyardgrass [1]; 31 g ai/ha, 0 to 100 scale, 0 no effect, 100 complete control, read-out: Plant response rating, Barnyardgrass) of 60%, a pest or weed control at 125 g/ha (barnyardgrass [1]; 125 g ai/ha, 0 to 100 scale where 0 is no effect and 100 is complete control, read-out: Barnyardgrass plant response rating) of 100% and a pest or weed control at 16 g/ha (lambsquarters; 16 g ai/ha, postemergence, 0 is no effect, 100 is complete control, read-out: Plant response rating (0 to 100), Lambsquarters) of 85%. The pest or weed control at 125 g/ha (lambsquarters; 125 g ai/ha, postemergence, visual rating, scale 0 to 100 (0 no effect, 100 complete control), read-out: Plant response rating, Lambsquarters) was 100%, the pest or weed control at 62 g/ha (lambsquarters; Postemergence, 62 g ai/ha, scale 0 to 100 (0 no effect, 100 complete control), read-out: Plant response rating, Lambsquarters) was 100% and the “Plant response rating, Kochia” value (kochia; [11]) was 100. The “Plant response rating, Kochia” value (kochia; 125 g ai/ha) was 100, the pest or weed control at 31 g/ha (barnyardgrass [2]; [11]) was 90% and the pest or weed control at 125 g/ha (barnyardgrass [2]; 125 g ai/ha) was 100%. The pest or weed control at 16 g/ha (Italian ryegrass [3]; [8]) was 40%, the pest or weed control at 62 g/ha (Italian ryegrass [3]; [9]) was 75% and the pest or weed control at 125 g/ha (Italian ryegrass [3]; [10]) was 100%. For the same compound, the “Plant response rating, Ryegrass, Italian” value (Italian ryegrass [4]; 31 g ai/ha, 0 to 100 scale, 0 no effect, 100 complete control) was 60, the “Ryegrass, Italian plant response rating” value (Italian ryegrass [4]; 125 g ai/ha, 0 to 100 scale where 0 is no effect and 100 is complete control) was 80 and the pest or weed control at 16 g/ha (galium [5]; 16 g ai/ha, preemergence, scale 0 to 100 (0 no effect, 100 complete control), read-out: Galium plant response rating) was 98%. The pest or weed control at 62 g/ha (galium [5]; 62 g ai/ha, preemergence, scale 0 (no effect) to 100 (complete control), read-out: Galium plant response rating) was 100%, the pest or weed control at 125 g/ha (galium [5]; 125 g ai/ha, preemergence, scale 0 (no effect) to 100 (complete control), read-out: Galium plant response rating) was 100% and the pest or weed control at 31 g/ha (galium [5]; Preemergence, 31 g ai/ha, scale 0 to 100, 0 no effect, 100 complete control, read-out: Plant response rating, Galium) was 98%. The pest or weed control at 16 g/ha (morningglory; [8]) was 75%, the pest or weed control at 62 g/ha (morningglory; [9]) was 100% and the pest or weed control at 125 g/ha (morningglory; [10]) was 100%. It also gave a Soybean plant response rating (crop injury, 0-100 scale) at 16 g/ha (soybean; 16 g ai/ha, postemergence, 0 is no effect, 100 is complete control) of 85%, a Soybean plant response rating (crop injury, 0-100 scale) at 125 g/ha (soybean; 125 g ai/ha, postemergence, visual rating, scale 0 to 100 (0 no effect, 100 complete control), read-out: Plant response rating, Soybean) of 95% and a Soybean plant response rating (crop injury, 0-100 scale) at 62 g/ha (soybean; Postemergence, 62 g ai/ha, scale 0 to 100 (0 no effect, 100 complete control)) of 90%. For the same compound, the pest or weed control at 16 g/ha (blackgrass; 16 g ai/ha, postemergence, 0 is no effect, 100 is complete control, read-out: Plant response rating (0 to 100), Blackgrass) was 5%, the pest or weed control at 125 g/ha (blackgrass; 125 g ai/ha, postemergence, visual rating, scale 0 to 100 (0 no effect, 100 complete control), read-out: Plant response rating, Blackgrass) was 60% and the pest or weed control at 31 g/ha (blackgrass; Postemergence, 31 g ai/ha, scale 0 to 100 (0 no effect, 100 complete control), 13 to 15 days, read-out: Plant response rating, Blackgrass) was 35%. The pest or weed control at 62 g/ha (blackgrass; Postemergence, 62 g ai/ha, scale 0 to 100 (0 no effect, 100 complete control), read-out: Plant response rating, Blackgrass) was 35%, the “Plant response rating, Ryegrass, Italian” value (Italian ryegrass [6]; [11]) was 30 and the “Plant response rating, Ryegrass, Italian” value (Italian ryegrass [6]; 125 g ai/ha) was 80. The pest or weed control at 16 g/ha (galium [7]; 16 g ai/ha, postemergence, 0 is no effect, 100 is complete control, read-out: Plant response rating (0 to 100), Galium) was 90%, the pest or weed control at 125 g/ha (galium [7]; 125 g ai/ha, postemergence, visual rating, scale 0 to 100 (0 no effect, 100 complete control), read-out: Plant response rating, Galium) was 100% and the pest or weed control at 62 g/ha (galium [7]; Postemergence, 62 g ai/ha, scale 0 to 100 (0 no effect, 100 complete control), read-out: Plant response rating, Galium) was 98%. For the same compound, the pest or weed control at 16 g/ha (ragweed; 16 g ai/ha, postemergence, 0 is no effect, 100 is complete control, read-out: Plant response rating (0 to 100), Ragweed) was 80%, the pest or weed control at 125 g/ha (ragweed; 125 g ai/ha, postemergence, visual rating, scale 0 to 100 (0 no effect, 100 complete control), read-out: Plant response rating, Ragweed) was 90% and the pest or weed control at 62 g/ha (ragweed; Postemergence, 62 g ai/ha, scale 0 to 100 (0 no effect, 100 complete control), read-out: Plant response rating, Ragweed) was 98%. The plant injury at 31 g/ha (wheat; 31 g ai/ha, 0 to 100 scale, 0 no effect, 100 complete control, read-out: Plant response rating, Wheat) was 10% and the plant injury at 125 g/ha (wheat; 125 g ai/ha, 0 to 100 scale where 0 is no effect and 100 is complete control, read-out: Wheat plant response rating) was 80%.
